Measurements: paper PMC7281206, “Cysteine Cathepsins Inhibition Affects Their Expression and Human Renal Cancer Cell Phenotype” (Cancers, 2020)
*: point of attachment. CH2F = FC*

Columns and labels:
[1] = tested on: 769-P cells; test: Cell viability with paclitaxel (MTT), 769-P; format: cell-based, human; details: peptide 20 µM combined with PXT 100 nM; versus PXT alone
Experimental: To evaluate the inhibitory properties of the peptides directly on the human renal cancer cells, we firstly assessed the impact of Ac-PLVE-FMK and Ac-VLPE-FMK on the cell viability of 769-P and A498 cells to determine the working concentrations for further experiments. […] Further experiments were performed using a concentration of 20 μM. To understand if the peptides could affect the activity of caspase proteases, we tested their effect on cell viability in combination with the chemotherapeutic paclitaxel (PXT) in both the cell lines. […] Next, we evaluated the effect of the peptides on renal cancer cell proteolytic activity against the fluorogenic probe Ac-PLVQ-AMC. In this case, 769-p and A498 cells were treated for 30 min with Ac-PLVE-FMK or Ac-VLPE-FMK and were then exposed for 10 min to the substrate Ac-PLVQ-AMC prior fluorescence microscopy analysis (Figure 3c,d).
The cell number was evaluated by counting viable cells using the MTT (3-(4,5-dimethylthiazol-2-yl)-2,5-diphenyltetrazolium bromide) colorimetric assay. A total of 2 × 10^4 cells/well were seeded on independent 96-well plates for each time point (0, 24, 48, and 72 h), with five replicates and treated with two inhibitors (2.5–250 μM). Then, 10 µL of the MTT reagent was added to each well, and cells were incubated for another 5 h. Next, the absorbance value was measured using a CLARIOstar® Plus plate reader (BMG Labtech, Ortenberg, Germany) at 490 nm. Triplicate wells were assayed, and S.D.s were determined.
Figure S3. Combined effect of PXT and the inhibitors on 769‐P proliferation: 769‐P cells were treated with 100 nM of PXT alone or in combination with 20 μM of Ac‐PLVE and Ac‐VLPE and cell proliferation was measured after 24, 48, and 72 h via MTT assay. Data represent the mean (± S.D.) of three independent experiments, each performed in triplicate.
Figure S4. Spheroids size and circularity: (a,b) size and circularity of 769‐P and (c,d) A498 cells upon treatment with Ac‐PLVE‐FMK and Ac‐VLPE‐FMK. Data represent the mean (± S.D.) of three independent experiments, each performed in triplicate. […]

[2] = tested on: human recombinant CtsL; test: Fluorescent protease activity assay, recombinant CtsL; format: biochemical; details: 20 nM CtsL, 50 μM Ac-PLVQ-AMC, inhibitor 2 μM; 0.1 M sodium acetic buffer pH 4.6, 12 min, Ex/Em 353/442 nm
Experimental: Ac-PLVE-FMK and Ac-VLPE-FMK inhibitory properties were evaluated against human recombinant CtsL and B. These recombinant enzymes were expressed in E. coli via plasmid transformation and further purification, using nickel-nitrilotriacetic acid (Ni-NTA) sepharose. Gel zymography assay was used to provide a preliminary evaluation of the ability of these recombinant proteins to degrade the gelatin substrate previously embedded in the gel (Supplementary Figure S1). Following Coomassie staining, the Cts were detectable as single bands. As expected, a translucent area was evident, due to the substrate digestion in the proximity of the proteins. Then, the recombinant proteins were tested for their ability to digest the Triticain-α substrate Ac-PLVQ via fluorescent protease activity assay, previously optimized by our group. This probe was conjugated with the fluorogenic chromophore 7-amino-4-methylcoumarin (Ac-PLVQ-AMC). After proteolytic cleavage, it emits a detectable fluorescent signal.
Total RNA extract from retinoblastoma […] cells was used to obtain cDNA. A pair of oligonucleotides ([…] and […]) was used for the amplification of DNA fragment containing CtsB, the product of which was ligated into pET15b (Merck Millipore, Billerica, MA, USA) using NdeI and XhoI. DNA fragment containing CtsL was amplified using a pair of oligonucleotides ([…] and […]) and ligated into pET28a (+) (Merck Millipore, Billerica, MA, USA) using NheI and HindIII. […]
The activity of recombinant CtsL and B was detected by the hydrolysis of the fluorogenic substrate Ac-Pro-Leu-Val-Gln- 7-amino-4-methylcoumarin (AMC) (Pepmic Suzhou Jiangsu, China). […] The substrate was added to a final concentration of 50 μM, and its hydrolysis was continuously measured for 12 min using a CLARIOstar® Plus plate reader (BMG Labtech Ortenberg Baden-Württemberg, Germany) at excitation and emission wavelengths of 353 and 442 nm, respectively.

[3] = tested on: A498 cells (endolysosomal compartment); test: LysoTracker red fluorescence, A498; format: cell-based, human; details: 20 μM; 48 h; 75 nM LysoTracker red, 1 h, Ex/Em 570/600
Experimental: First, 1.5 × 10^4 769-P or A498 cells were seeded in 96-well plates in full medium. The day after the cells were treated with the peptides for 3 consecutive days to establish 24, 48, and 72 h groups of treatment. LysoTracker Red fluorescence intensity was measured via microplate reader following the protocols described in [75] and applying Ex/Em = 570/600. The cells were incubated with 75 nM of LysoTracker red for 1 h. […]
Figure S6. The effect of the peptide inhibitors on human 769‐P and A498 renal cancer cell on
lysosomes integrity. (a) 769‐P and (b) A498 cells were treated with increasing doses of Ac‐PLVE‐FMK
(red bars) and Ac‐VLPE‐FMK (blue bars) (2.5–250 μM). NR uptake was measured after 24, 48, and 72
h via MTT assay. (c) LysoTracker red evaluation in 769‐P and (d) A498 cells after 24, 48, and 72 h with
the inhibitors (20 μM). Data represent the mean (± S.D.) of at least three independent experiments,
each performed in triplicate. […]

Substance | Effect on cell viability in combination with PXT [1] | Inhibition of Ac-PLVQ-AMC cleavage (fluorescent signal) [2] | LysoTracker red fluorescence [3]
Ac-PLVE-CH2F [Ac-PLVE-FMK] | no significant differences were observed | the intensity of the fluorescent signal was significantly affected | decreasing
Ac-VLPE-CH2F [Ac-VLPE-FMK] | no significant differences were observed | the intensity of the fluorescent signal was significantly affected | decreasing
